Read-outs that look alike come from different tables or passages of the source.
Experiments:
Mouse melanoma B16F10 = assay: Cell viability assay, CellTiter-Glo, B16F10
Experimental: (§1) Indicated cells were treated with indicated drug combinations for 48 h or as indicated in conditions imitating tumor environment—RPMI supplemented with 10% FCS and 20 mM PIPES, adjusted to pH 6.5. After treatment, cells were analyzed for cell viability: • using CellTiter-Blue® Cell Viability Assay, Promega according to manufacturer recommendations. For each treatment, the fraction (%) of viable cells are indicated. Untreated viable cells were set to 100%. Average data of 2 independent experiments are presented. Each independent experiment contained 4 biological replicates for each condition. • using CellTiter-Glo® Cell Viability Assay, Promega according manufacturer recommendations. For each treatment the fraction (%) of viable cells are indicated. Untreated viable cells were set to 100%. Each measurement represents the mean value of 4 biological replicates for each condition.

Lung cancer H1975 = assay: Cell viability assay, CellTiter-Glo, H1975; conditions: Homo sapiens, NCI-H1975, 72 h, pH 6.5, read-out: fraction (%) of viable cells
Experimental: as §1

H1975 cells = assay type: cell-based; conditions: H1975 cells expressing EC-GFP, Metformin for 48 hours
Description: FIG. 1: Treatment with Metformin and combined preparations causes an intracellular pH drop in cancer cell lines. Intracellular pH measurements were done in cells expressing a pH sensitive variant of GFP (EC-GFP). Live cells were imaged at 405 nm and 488 nm excitation wavelengths to record control and pH-sensitive emissions, correspondingly. Eight biological replicates were done for each treatment. Error bars correspond to mean values±s.d.; P≤0.0001. a. […] Confocal microscopy of H1975 and HEK293 live cells expressing EC-GFP treated with Metformin for 48 hours. To rule out a possibility that GFP signal fading is due to degradation, after exposure to the drug, cells were transferred to media with pH 8.8 supplemented with 5 μM Nigericin for 30 minutes before re-imaging (Metformin pH 8.8 rescue). b, c. […] Intracellular pH measurements were done after cells were treated alone or in combination with Rotenone or/and Nigericin, and with Papaverine or/and Salinomycin for 27 or 48 hours in pH 6.5 buffer, as indicated.
Intracellular pH in indicated cancer cell lines and non-cancer 293T cells was measured using cell lines stabile expressing pH sensitive EC-GFP at two different excitation wave length to obtain 488 nm/405 nm ratios. […] 488/405 ratios were quantified using ImageJ (NIH) software.

Sox4 [1] = assay type: cell-based; conditions: Metformin 72 hours
Experimental: Cells were densely seeded on 6-well plates. Starting on the following day, cells were treated with indicated drug combinations for 48 h in conditions imitating tumor environment: RPMI supplemented with 10% FCS and 20 mM PIPES, adjusted to pH 6.5. For non-cancer HEK293Tcells, non modified RPMI medium supplemented with 10% FCS was used. Cells were extracted only in Triton lysis buffer (as in example 3) and analyzed in Western Blot.
Cells were treated with combined preparations (Nigericin 10 nM, Rotenone 5 nM, Papaverine HCl 1 μm; Salinomycin 10 nM) with or without addition of NAC (N-acetyl cysteine) 1 mM, DOX (Doxycycline) and Minocycline 20 μM, Trolox (soluble form of vitamin E) 100 μM.

Sox4 [2] = assay type: cell-based; conditions: non-malignant HEK293t cells, Metformin 72 hours
Experimental: (§2) For gene expression measurement, cells were seeded in 6 well plates. On the following day, cells were treated with 6 mM Metformin for 48 h in normal RPMI medium supplemented with 10% FCS. Cells were harvested using Trypsin/EDTA and divided in up to 3 aliquots. A first aliquot was used for RNA preparation using RNeasy kit (Qiagen) and subsequent quantitative reverse transcription-PCR (qRT-PCR) analysis with LC480 LightCycler (Roche). A second aliquot was extracted with Saponin buffer (0.05% Saponin, 1 mM MgCl2, 1×TBS, 2 mM ME, 1× protein inhibitor cocktail (Roche) for obtaining cytoplasmic protein fraction. This fraction was used for b-catenin protein detection. Third aliquot was extracted with Triton lysis buffer ((TBS (50 mM Tris pH7.4, 150 mM NaCl, 2.7 mM KCl), 1% Triton X-100, 2 mM β-mercaptoethanol (ME), 1 mM MgCl2, 10 mM sodium pyrophosphate, 10 mM NaF, 1× proteinase inhibitor cocktail). This aliquot was used for Sox4 and a-tubulin (control) protein detection. For second and third aliquots 20-35 μl of buffer was used for 500 000 cells. After centrifugation extracts were used for Western blot analysis.
Experiments were done as in example 3. Cells were densely seeded on 6-well plates. […] For non-cancer HEK293Tcells, non modified RPMI medium supplemented with 10% FCS was used. Cells were extracted only in Triton lysis buffer (as in example 3) and analyzed in Western Blot.

Wnt signaling pathway = assay type: cell-based; conditions: cancer cell lines (FIG. 2A), 6 mM Metformin
Experimental: as §2
Experiment was done as in example 3. […] CHOP protein was detected in Triton lysis buffer extract.

Colon cancer DLD1 cells [3] = assay: Cell viability assay, CellTiter-Glo, DLD1
Experimental: as §1

Colon cancer DLD1 cells [4] = assay: Cell viability assay, CellTiter-Blue, DLD1; conditions: Homo sapiens, DLD-1, 72 h, pH 6.5, read-out: fraction (%) of viable cells
Experimental: as §1

Lung cancer H1975 cells = assay: Cell viability assay, CellTiter-Blue, H1975; conditions: Homo sapiens, NCI-H1975, 48 h, pH 6.5, read-out: fraction (%) of viable cells
Experimental: as §1

[5] = tested on: Breast cancer MDA-MB-231 cells; assay: Cell viability assay, CellTiter-Blue, MDA-MB-231; conditions: Homo sapiens, MDA-MB-231, 48 h, pH 6.5, read-out: fraction (%) of viable cells
Experimental: as §1

Melanoma A375 cells = assay: Cell viability assay, CellTiter-Glo, A375; conditions: Homo sapiens, A-375, 48 h, pH 6.5, read-out: fraction (%) of viable cells
Experimental: as §1

[6] = tested on: Prostate cancer PC3 cells; assay: Cell viability assay, CellTiter-Glo, PC3; conditions: Homo sapiens, PC-3, 48 h, pH 6.5, read-out: fraction (%) of viable cells
Experimental: as §1

[7] = tested on: Pancreas cancer Bxpc3 cells; assay: Cell viability assay, CellTiter-Glo, Bxpc3; conditions: Homo sapiens, BXPC-3, 48 h, pH 6.5, read-out: fraction (%) of viable cells
Experimental: as §1

[8] = Homo sapiens, DLD-1, 72 h, pH 6.5, read-out: fraction (%) of viable cells

Structure (SMILES): Nc1ncnc2c1nc(Sc1ccc(Cl)cc1)n2[C@@H]1O[C@@H]2COP(=O)([O-])O[C@H]2[C@H]1O.[Na+] [8-CPT-cAMP, 8-(4-Chlorophenylthio)-adenosine-3′,5′-cyclic monophosphate]
- relative values of cell viability (Mouse melanoma B16F10; 8-CPT-cAMP 100 μM alone, 48 h, pH 6.5): 86%

Structure (SMILES): C=C[C@@]1(C)CC(=O)[C@]2(O)[C@@]3(C)[C@@H](O)CCC(C)(C)[C@@H]3[C@H](O)[C@H](OC(C)=O)[C@@]2(C)O1 [Forskolin, forskolin]
- viability at 10 µM (Mouse melanoma B16F10; Mus musculus, B16-F10, 48 h, pH 6.5, read-out: relative values of cell viability, Forskolin 10 μM alone, pH 6.5): 78%

Structure (SMILES): CO[C@@H]1[C@@H](OC)[C@H](C)[C@@](O)(CC(=O)O)O[C@H]1[C@H](C)[C@H]1O[C@@]2(CC[C@@](C)([C@H]3CC[C@@](C)([C@@H]4O[C@@H]([C@H]5O[C@](C)(O)[C@H](C)C[C@@H]5C)C[C@@H]4O[C@@H]4C[C@H](OC)[C@@H](OC)[C@H](C)O4)O3)O2)C[C@H](O)[C@H]1C [Maduramicin]
- viability at 0.004 µM (Mouse melanoma B16F10; Mus musculus, B16-F10, 48 h, pH 6.5, read-out: fraction (%) of viable cells, Maduramicin 4.00 nM, Phenformin 0.00 μM, pH 6.5): 111%

Structure (SMILES): CN(C)C(=N)N=C(N)N [Metformin]
- viability at 750 µM (Mouse melanoma B16F10; Mus musculus, B16-F10, 48 h, pH 6.5, read-out: fraction (%) of viable cells, Metformin 750 μM, Monensin 0.00 nM, pH 6.5): 80%
- viability at 1500 µM (Mouse melanoma B16F10; Mus musculus, B16-F10, 48 h, pH 6.5, read-out: fraction (%) of viable cells, Metformin 1500 μM, Monensin 0.00 nM, pH 6.5): 84%
- viability at 3000 µM (Mouse melanoma B16F10; Mus musculus, B16-F10, 48 h, pH 6.5, read-out: fraction (%) of viable cells, Metformin 3000 μM, Monensin 0.00 nM, pH 6.5): 9%
- viability at 94 µM (Lung cancer H1975): 84%
- viability at 188 µM (Lung cancer H1975): 70%
- viability at 375 µM (Lung cancer H1975): 45%
- intracellular pH (H1975 cells): causes intracellular acidification
- expression of endogenous Sox4 (Sox4 [1]; DLD1 and HCT116 cells): inhibits expression of endogenous Sox4
- Wnt-inducible Sox4 expression (Sox4 [1]; H1703 and H1299 cells, Wnt3a conditioned media 48 hours): inhibits Wnt-inducible Sox4
- expression of endogenous Sox4 (Sox4 [1]; H1975 cells): inhibits expression of endogenous Sox4
- expression of Sox4 (Sox4 [2]): has no effect on Sox4
- wnt signaling (Axin2 mRNA, cytoplasmic b-catenin) (Wnt signaling pathway): wnt signaling inhibitor

Structure (SMILES): CC[C@@]1([C@@H]2O[C@@H]([C@H]3O[C@@](O)(CO)[C@H](C)C[C@@H]3C)C[C@@H]2C)CC[C@H]([C@]2(C)CC[C@]3(C[C@H](O)[C@@H](C)[C@@H]([C@@H](C)[C@@H](OC)[C@H](C)C(=O)O)O3)O2)O1 [Monensin]
- fraction (%) of viable cells (Colon cancer DLD1 cells [3]; human, 72 h, 5 nM, pH 6.5): 112%
- viability at 0.005 µM (Colon cancer DLD1 cells [4]): 88%
- viability at 0.01 µM (Colon cancer DLD1 cells [4]): 72%
- viability at 0.02 µM (Colon cancer DLD1 cells [4]): 55%
- viability at 0.004 µM (Mouse melanoma B16F10; Mus musculus, B16-F10, 48 h, pH 6.5, read-out: fraction (%) of viable cells, Monensin 4.00 nM, Metformin 0.00 μM, pH 6.5): 111%
- viability at 0.004 µM (Mouse melanoma B16F10; Mus musculus, B16-F10, 48 h, pH 6.5, read-out: fraction (%) of viable cells, Monensin 4.00 nM, Phenformin 0.00 μM, pH 6.5): 95%
- viability at 0.005 µM (Lung cancer H1975): 55%

Structure (SMILES): CO[C@@H]1C[C@@H](C[C@H]2CC[C@H](C)[C@H]([C@@H](C)C(=O)O)O2)O[C@]2(O[C@](C)([C@H]3CC[C@@](C)([C@@H]4O[C@@H]([C@H]5O[C@@](O)(CO)[C@H](C)C[C@@H]5C)C[C@@H]4C)O3)C[C@H]2C)[C@@H]1C [Nigericin]
- viability at 0.0025 µM (Lung cancer H1975 cells): 93%
- viability at 0.005 µM (Lung cancer H1975 cells): 95%
- viability at 0.0025 µM [5]: 98%
- viability at 0.005 µM [5]: 101%
- viability at 0.005 µM (Colon cancer DLD1 cells [3]; [8]): 107%
- viability at 0.01 µM (Colon cancer DLD1 cells [3]; [8]): 103%
- viability at 0.00125 µM (Melanoma A375 cells): 58%
- viability at 0.0025 µM (Melanoma A375 cells): 7%
- viability at 0.005 µM [6]: 31%
- viability at 0.01 µM [6]: 0%
- viability at 0.005 µM [7]: 39%
- viability at 0.01 µM [7]: 35%

Structure (SMILES): [H]/N=C(/N)N/C(=N/[H])NCCc1ccccc1 [Phenformin]
- viability at 4 µM (Mouse melanoma B16F10; Mus musculus, B16-F10, 48 h, pH 6.5, read-out: fraction (%) of viable cells, Phenformin 4 μM, Maduramicin 0.00 nM, pH 6.5 (Table 12)): 82%
- viability at 4 µM (Mouse melanoma B16F10; Mus musculus, B16-F10, 48 h, pH 6.5, read-out: fraction (%) of viable cells, Phenformin 4 μM, Monensin 0.00 nM, pH 6.5 (Table 11)): 82%
- viability at 8 µM (Mouse melanoma B16F10; Mus musculus, B16-F10, 48 h, pH 6.5, read-out: fraction (%) of viable cells, Phenformin 8 μM, Maduramicin 0.00 nM, pH 6.5 (Table 12)): 76%
- viability at 8 µM (Mouse melanoma B16F10; Mus musculus, B16-F10, 48 h, pH 6.5, read-out: fraction (%) of viable cells, Phenformin 8 μM, Monensin 0.00 nM, pH 6.5 (Table 11)): 76%
- viability at 16 µM (Mouse melanoma B16F10; Mus musculus, B16-F10, 48 h, pH 6.5, read-out: fraction (%) of viable cells, Phenformin 16 μM, Maduramicin 0.00 nM, pH 6.5 (Table 12)): 56%
- viability at 16 µM (Mouse melanoma B16F10; Mus musculus, B16-F10, 48 h, pH 6.5, read-out: fraction (%) of viable cells, Phenformin 16 μM, Monensin 0.00 nM, pH 6.5 (Table 11)): 56%

Structure (SMILES): C=C(C)[C@H]1Cc2c(ccc3c2O[C@@H]2COc4cc(OC)c(OC)cc4[C@@H]2C3=O)O1 [Rotenone]
- viability at 0.0025 µM (Lung cancer H1975 cells): 103%
- viability at 0.005 µM (Lung cancer H1975 cells): 104%
- viability at 0.01 µM (Lung cancer H1975 cells): 110%
- viability at 0.02 µM (Lung cancer H1975 cells): 84%
- viability at 0.0025 µM [5]: 98%
- viability at 0.005 µM [5]: 102%
- viability at 0.01 µM [5]: 99%
- viability at 0.02 µM [5]: 81%
- viability at 0.005 µM (Colon cancer DLD1 cells [3]; [8]): 96%
- viability at 0.01 µM (Colon cancer DLD1 cells [3]; [8]): 89%
- viability at 0.02 µM (Colon cancer DLD1 cells [3]; [8]): 67%
- viability at 0.00125 µM (Melanoma A375 cells): 96%
- viability at 0.0025 µM (Melanoma A375 cells): 91%
- viability at 0.005 µM (Melanoma A375 cells): 75%
- viability at 0.005 µM [6]: 45%
- viability at 0.01 µM [6]: 4%
- viability at 0.02 µM [6]: 1%
- viability at 0.005 µM [7]: 104%
- viability at 0.01 µM [7]: 89%
- viability at 0.02 µM [7]: 59%
- viability at 0.005 µM (Colon cancer DLD1 cells [4]): 87%

— patent US20190321311A1, “Cancer Treatment by Simultaneous Targeting Energy Metabolism and Intracellular pH” (Deutsches Krebsforschungszentrum, priority 2016, published 2019)
